Patent US20240173346A1, “LINE-1 INHIBITORS TO TREAT CNS AND SYSTEMIC DISEASES” (TRANSPOSON THERAPEUTICS, INC., priority 2021, published 2024)
pIC50: −log10 of the molar value. Counter-ions that a name gives are not always drawn. Like-named read-outs stand apart in the source and are kept apart here.

Test system: human LINE-1
Assay: Human LINE-1 retrotransposition assay (HeLa cell-based dual-luciferase reporter, plasmid pYX017)
Settings: HeLa cells; for pIC50: 72 h incubation
Method: Islatravir and other compounds were tested for inhibition of retrotransposition activity of human LINE-1 in HeLa cells according to the following procedure.
HeLa cervical cancer cells were cultivated at 37° C. in a humidified 5% CO2 incubator in Dulbecco's Modified Eagle's Medium (DMEM)—high glucose, with 4500 mg/L glucose, L-glutamine, sodium pyruvate and sodium bicarbonate (Sigma), supplemented with 10% of heat inactivated fetal bovine serum (Thermo Fisher).
Assays were performed using reporter plasmid pYX017 as described (Xie, et al., 2011) with several modifications. The reporter assay was performed in 96-well white optical bottom plates. HeLa cells were seeded in wells 24 h prior to transfection and compound treatment so that cells were approximately 30% confluent on the day of transfection. Different cell plating densities were tested and a density of 2×10^3 cells was determined to be optimal.
Compounds were resuspended in DMSO. Serial dilutions (1:3) were prepared in DMSO. Medium containing different concentrations of the compounds were prepared by adding 2 μl of the compound dilution to 1 ml of the culture medium. The final concentration of DMSO in the medium was 0.2%.
FuGENE® HD transfection reagent (Promega, E2311, Lot 382574 and Lot 397842) was used to transfect the plasmids into the cells. The transfection reagent: DNA mixture was prepared in OpiMEM (Thermo Fisher) according to manufacturer's instructions. Different ratios of transfection reagent to DNA were tested and a ratio of 3:1 was determined to be optimal. Culture medium was removed from the cells and discarded. The transfection reagent: DNA mixture (5 μl) was mixed with the compound containing medium (100 μl/well) and this was added onto the cells of each well. Cells were incubated at 37° C./5% CO2 for different incubation time. A 72 h incubation time was determined to be optimal.
Luciferase reporter activity was quantified with the Dual-Luciferase® Reporter Assay System (Promega) according to manufacturer's instructions for multiwell plates except that cells were lysed directly on the multiwell plate with 30 μl of the passive lysis buffer (PLB) for 20 min at room temperature, with gentle shaking to ensure complete cell lysis.
Firefly and Renilla luciferase signals were measured using a SpectraMax i3x Multi-Mode Microplate Reader. Integration times of 100 ms and 10 ms were used to measure the Firefly and Renilla signals respectively. Relative L1 activity is calculated as Firefly/Renilla *1000 or Firefly/Renilla *10,000. Dose response inhibition data were fit to a four parameter logistic equation using non-linear regression (using Graphpad Prism 8), to determine IC50 values for each inhibitor.

[1] = Homo sapiens, Firefly/Renilla luciferase, experiment 3, read-out: Human LINE-1 IC50, Exp. 3
[2] = Homo sapiens, Firefly/Renilla luciferase, experiment 4, read-out: Human LINE-1 IC50, Exp. 4
[3] = Homo sapiens, average of n = 2-4 experiments, read-out: Human LINE-1 IC50, Average
[4] = Homo sapiens, Firefly/Renilla luciferase, experiment 2, read-out: Human LINE-1 IC50, Exp. 2
[5] = Homo sapiens, Firefly/Renilla luciferase, experiment 1, read-out: Human LINE-1 IC50, Exp. 1
[6] = Homo sapiens, compounds of Table 1 (Table 4), read-out: Human LINE-1 IC50

Row | SMILES | pIC50 [1] | pIC50 [2] | other results
1 | Nc1nc(NC2CC2)c2ncn([C@H]3C=C[C@@H](CO)C3)c2n1 [Abacavir sulfate] | 4.78 | 4.76 | 
2 | C#C[C@@]1(CO)C=C[C@H](n2cc(C)c(=O)[nH]c2=O)O1 [Censavudine, 4′-ethynylstavudine] | 7.10 |  | human LINE-1 inhibitor activity compared to the other reverse transcriptase inhibitory drugs tested (comparison in words): unexpectedly better human LINE-1 inhibitor activity; pIC50 [4]: 7.05; pIC50 [3]: 7.15
3 | C#C[C@]1(CO)O[C@@H](n2cnc3c(N)nc(F)nc32)C[C@@H]1O [Islatravir, 2′-deoxy-4′-ethynyl-2-fluoroadenosine] |  |  | pIC50 [3]: 8.89
4 | Cc1cn([C@H]2C=C[C@@H](CO)O2)c(=O)[nH]c1=O [Stavudine] | 6.11 | 6.15 | 
5 | CC(C)OC(=O)OCOP(=O)(CO[C@H](C)Cn1cnc2c(N)ncnc21)OCOC(=O)OC(C)C [Tenofovir disoproxil] | 6.85 | 6.59 | 
6 | C[C@H](Cn1cnc2c(N)ncnc21)OCP(=O)(O)O [Tenofovir] |  |  | pIC50 (Firefly/Renilla luciferase, experiment 3, read-out: Human LINE-1 IC50, Exp. 3): 5.48; pIC50 (Firefly/Renilla luciferase, experiment 4, read-out: Human LINE-1 IC50, Exp. 4): 5.65
7 | C#C[C@]1(CO)O[C@@H](n2cc(C)c(N)nc2=O)C[C@@H]1O [compound 6] |  |  | pIC50 [6]: 4.73
8 | C=C[C@]1(CO)O[C@@H](n2ccc(N)nc2=O)C[C@@H]1O [compound 18] |  |  | pIC50 [6]: 8.10
9 | CC[C@]1(CO)O[C@@H](n2cc(C)c(=O)[nH]c2=O)C[C@@H]1O [compound 19] |  |  | pIC50 [6]: 5.70
10 | CC[C@]1(CO)O[C@@H](n2cnc3c(O)nc(N)nc32)C[C@@H]1O [compound 20] |  |  | pIC50 [6]: 8.52

The next lines start with results.

Row | pIC50 [1] | pIC50 [2] | SMILES | other results
11 | 5.11 | 5.28 | Nc1ccn([C@H]2CO[C@@H](CO)S2)c(=O)n1 [Apricitabine] | pIC50 [3]: 5.19
12 | 7.10 | 6.96 | Nc1nc(=O)n([C@@H]2C=C[C@H](CO)O2)cc1F [Elvucitabine] | pIC50 [5]: 7.05; pIC50 [3]: 7.05
13 | 5.86 | 5.89 | Nc1nc(=O)n([C@@H]2CS[C@H](CO)O2)cc1F [Emtricitabine] | 
14 | 6.24 | 6.47 | Nc1ccn([C@@H]2CS[C@H](CO)O2)c(=O)n1 [Lamivudine] | pIC50 [5]: 6.10; pIC50 [4]: 6.06
